The text below walks through data of US4735947A, “Methyllevallorphanium salts having peripheral opiate antagonistic activity” (Sanofi, priority 1983, dated 1988).

Where a name gives a salt, the structure may show the parent alone. Bounds are passed on as bounds.

The test system of assay [1] is analgesic effect of morphine. The assay is described as follows: antagonism to the analgesic effect of morphine, hot-plate analgesia test (P. A. Janssen et al.). The format is in vivo, mice. As to conditions: for Antagonism to the analgesic effect ID50a / ED50: female mice, antagonist s.c. 5 min before morphine 24 mg/kg s.c.; for ED50: read-out: Antagonism to the analgesic effect ID50a. The protocol: (§1) The antagonism to the peripheral action of opiates is assessed on the basis of the percent inhibition of the analgesic and of the constipating effects of morphine. The ratio between the dose which inhibits by 50% the analgesic effect of morphine and the dose which inhibits by 50% its constipating effect represents the index of the peripheral activity.
(§2) The antagonism to the analgesic effect of morphine was assessed by the hot-plate analgesia test according to P. A. Janssen et al. (J. Pharm. Pharmacol. 1957, 9, 381-400) by using fasting (18 hours) female mice of 20-22 g. Morphine was injected subcutaneously (24 mg/kg) thirty minutes before the beginning of the test. The antagonist was injected subcutaneously 5 minutes before the morphine. The antagonistic activity was expressed as ID50 of the morphine antinociceptive effect, calculated on the basis of the log dose reaction time regression of the animals treated with different doses of the products under testing.
(§3) The doses which inhibit by 50% the analgesic effect (ID50a) and the constipating effect (ID50c) have been extrapolated from least square log dose-response line by applying the analysis of the variance by linear regression.

The subject of assay [2] is constipating effect of morphine. Description: antagonism to the morphine constipating effect, charcoal meal test (A. F. Green, slightly modified). The assay is classed as in vivo, mice. As to conditions: for Antagonism to the constipating effect ID50c / ED50: charcoal meal, female mice, antagonist s.c. 5 min before morphine 12 mg/kg s.c.; for ED50: Mus musculus, sc, read-out: Antagonism to the constipating effect ID50c. On the procedure: as §1
(§4) The antagonism to the morphine constipating effect of the methyl levallorphanium salts of the present invention was assessed according to the test described by A. F. Green (Br. J. Pharm. Chemother. 1959, 14, 26-34), slightly modified.
(§5) Three groups of fasting (20 hours) female mice of about 20 g were used. To a control group, a meal consisting of 0.2 ml of a mixture of 5% arabic gum (6 ml), flour (2 g) and charcoal (1 g) was administered by oral route. The second group was treated with 12 mg/kg of morphine s.c. and, immediately afterwards, with the above charcoal meal. […] After 30 minutes, the animals were sacrificed to assess the portion of intestine through which the charcoal had passed, expressed as percent of the total length of the small intestine.
as §3

The subject of assay [3] is analgesic and constipating effects of morphine. Description: index of peripheral activity (hot-plate analgesia test versus charcoal meal constipation test). The assay is classed as in vivo, mice. The conditions noted are these: for ID50a/ID50c: index of the peripheral activity; for peripheral selectivity (analgesic versus constipating effect), in words: conditions of Table I. The protocol: as §1, §2, §4, §5, §3

In another assay the test system is opiate. The conditions noted are these: reported in earlier literature or filings; cited from earlier work.

`C=CC[N+]1(C)CC[C@]23CCCC[C@H]2[C@H]1Cc1ccc(O)cc13` (single isomer, unassigned) [methyllevallorphanium mesilate]: in assay [1], the “Antagonism to the analgesic effect ID50a” value is given as over 60 mg/kg. Besides, the “Antagonism to the constipating effect ID50c” value in assay [2] amounted to 7.4 mg/kg. The ID50a/ID50c in assay [3] was over 8.
Consider `C=CC[N+]1(CC=C)CC[C@]23CCCC[C@H]2[C@H]1Cc1ccc(O)cc13` [levallorphan bromoallylate], for which, in assay [2], the ED50 came out at 15.7 mg/kg. For the same molecule, the “peripheral opiate antagonism, in words” value in assay [2] (conditions of Table I) was “good opiate peripheral antagonist”. For the same molecule, the “peripheral antagonistic activity / opiate antagonistic activity” value in the assay on opiate is given as “peripheral narcotic antagonist”. In assay [3], the “peripheral selectivity (analgesic versus constipating effect), in words” value (from here on “peripheral selectivity”) was “the ratio between its ID50a and ID50c is by far lower than that of the compounds of the present invention”; the ID50a/ID50c stood at 0.97.
Consider `C=CC[N+]1(C)CC[C@]23CCCC[C@H]2[C@H]1Cc1ccc(O)cc13` (single isomer, unassigned) [methyllevallorphanium methylsulfate], for which the inhibition at 30 mg/kg in assay [1] (Mus musculus, sc, at 30 mg/kg s.c., mice, read-out: inhib. of the analgesic effect of morphine) turned out to be 41%. Further, the inhibition at 60 mg/kg in assay [1] (Mus musculus, sc, at 60 mg/kg s.c., mice, read-out: inhib. of the analgesic effect of morphine) worked out at 49%. For the same molecule, the ED50 is about 60 mg/kg in assay [1] (Mus musculus, sc) and 4.9 mg/kg in assay [2]. Further, the ID50a/ID50c in assay [3] is ~ 12.
Consider `C=CCN1CC[C@]23c4c5ccc(O)c4O[C@H]2C(=O)CC[C@@]3(O)[C@H]1C5` [naloxone, N-allylnoroxymorphone], for which the ED50 in assay [1] (Mus musculus, sc) was 0.06 mg/kg; in assay [2], 0.75 mg/kg. Further, the “peripheral selectivity” value in assay [3] was “more active as antagonists of the analgesic effect than as antagonists of the constipating effect”. The molecule also returned an ID50a/ID50c in assay [3] of 0.08.
As for `C=CC[N+]1(C)CC[C@]23c4c5ccc(O)c4O[C@H]2C(=O)CC[C@@]3(O)[C@H]1C5.COS(=O)(=O)[O-]` (stereo partly drawn) [naloxone sulfomethylate], the “Antagonism to the analgesic effect ID50a” value in assay [1] turned out to be 1.6 mg/kg. Also, the “Antagonism to the constipating effect ID50c” value in assay [2] was 5.8 mg/kg. Also, in assay [3], the ID50a/ID50c was 0.27.
Turning to `C=CCN1CC[C@]23CCCC[C@H]2[C@H]1Cc1ccc(O)cc13` [levallorphan tartrate], the ED50 in assay [1] (Mus musculus, sc) came to 0.03 mg/kg. In assay [2], the ED50 worked out at 5.5 mg/kg. In addition, in assay [3], the “peripheral selectivity” value is listed as “more active as antagonists of the analgesic effect than as antagonists of the constipating effect” and the ID50a/ID50c amounted to 0.01.
